Target: MtmOIV (Streptomyces argillaceus, UniProt Q194P4)
Assay: X-ray crystal structure, […] Å
Type: binding
Settings: non-covalently bound, IN conformation

Cc1cc2nc3c(=O)[nH]c(=O)nc-3n(C[C@H](O)[C@H](O)[C@H](O)COP(=O)(O)OP(=O)(O)OC[C@H]3O[C@@H](n4cnc5c(N)ncnc54)[C@H](O)[C@@H]3O)c2cc1C [FAD]
X-ray crystal structure, 2.9 Å: The FAD cofactor was found non-covalently bound in the crystal structure

From PMC2713373 (Biochemistry, 2009)
